Test results from ChEMBL document CHEMBL4828748, “Design, synthesis, and pharmacological evaluation of sinomenine derivatives on rings A and C: Novel compounds screening for aplastic anemia targeting on cytotoxic T lymphocyte” (Eur J Med Chem, 2021).
Activity calls are given as the source filed them. The rule behind the calls is not given here.

Assays:
[1] = Inhibition of mouse CTLL-2 cells activity incubated for 24 hrs; format: functional, cell-based
[2] = Inhibition of CD3/CD28 antibody-stimulated C57BL/6 mouse primary CD8-positive T lymphocytes activation assessed as proportion of CD69-positive cells at 3 uM incubated for 48 hrs by flow cytometry (reference value: 93.42%); format: functional, CD8-positive T cell; design: scale not given: the % may be the effect or the level left
Mus musculus [3] = assay: Anti-aplastic anaemia in immune-mediated bone marrow failure BALB/c mouse model assessed as increase in WBC count at 2.5 to 10 mg/kg, po administered for 14 days and measured on day 14 by automated micro-analyzer; format: functional, organism-based; details: dose 2.5-10 mg/kg, time 14.0 day
Mus musculus [4] = assay: Anti-aplastic anaemia in immune-mediated bone marrow failure BALB/c mouse model assessed as reduction in histopathological changes in femur at 2.5 to 10 mg/kg, po administered for 14 days and measured on day 14 by Hematoxylin-Eosin staining based analysis; format: functional, organism-based; details: dose 2.5-10 mg/kg, time 14.0 day
Mus musculus [5] = assay: Anti-aplastic anaemia in immune-mediated bone marrow failure BALB/c mouse model assessed as increase in immature reticulocytes administered orally for 14 days and measured on day 14 by automated micro-analyzer; format: functional, organism-based; details: dose 2.5-10 mg/kg, time 14.0 day
[6] = Inhibition of CD3/CD28 antibody-stimulated C57BL/6 mouse primary CD8-positive T lymphocytes activation assessed as proportion of CD69-positive cells at 5 uM incubated for 48 hrs by flow cytometry (reference value: 93.42%); format: functional, CD8-positive T cell; design: scale not given: the % may be the effect or the level left
Mus musculus [7] = assay: Anti-aplastic anaemia in immune-mediated bone marrow failure BALB/c mouse model assessed as increase in RBC count at 2.5 to 10 mg/kg, po administered for 14 days and measured on day 14 by automated micro-analyzer; format: functional, organism-based; details: dose 2.5-10 mg/kg, time 14.0 day
Mus musculus [8] = assay: Anti-aplastic anaemia in immune-mediated bone marrow failure BALB/c mouse model assessed as increase in neutrophils count at 2.5 to 10 mg/kg, po administered for 14 days and measured on day 14 by automated micro-analyzer; format: functional, organism-based; details: dose 2.5-10 mg/kg, time 14.0 day
Mus musculus [9] = assay: Anti-aplastic anaemia in immune-mediated bone marrow failure BALB/c mouse model assessed as prevention of food intake decrease at 2.5 to 10 mg/kg, po administered for 14 days; format: functional, organism-based; details: dose 2.5-10 mg/kg, time 14.0 day
[10] = Cytotoxicity against C57BL/6J mouse peritoneal macrophages assessed as reduction of cell viability at 10 uM incubated for 24 hrs in presence of LPS by MTT assay; format: cell-based, Peritoneal macrophage
Mus musculus [11] = assay: Anti-aplastic anaemia in immune-mediated bone marrow failure BALB/c mouse model assessed as increase in hemoglobin content at 2.5 to 10 mg/kg, po administered for 14 days and measured on day 14 by automated micro-analyzer; format: functional, organism-based; details: dose 2.5-10 mg/kg, time 14.0 day
[12] = Acute toxicity in Kunming mouse assessed as animal survival without abnormal state at 5 to 10 g/kg, po administered as single dose; format: organism-based; details: in vivo, dose 5-10 g/Kg
Mus musculus [13] = assay: Anti-aplastic anaemia in immune-mediated bone marrow failure BALB/c mouse model assessed as increase in spleen index at 2.5 to 10 mg/kg, po administered for 14 days; format: functional, organism-based; details: dose 2.5-10 mg/kg, time 14.0 day
Mus musculus [14] = assay: Anti-aplastic anaemia in immune-mediated bone marrow failure BALB/c mouse model assessed as slowing down the weight loss at 2.5 to 10 mg/kg, po administered for 14 days; format: functional, organism-based; details: dose 2.5-10 mg/kg, time 14.0 day
CD8-positive T cell [15] = assay: Inhibition of aerobic glycolysis in CD3/CD28 antibody-stimulated C57BL/6 mouse primary CD8-positive T lymphocytes assessed as reduction in glucose consumption at 1 to 5 uM incubated for 48 hrs; format: functional, tissue-based; details: dose 1-5 µM
Mus musculus [16] = assay: Anti-aplastic anaemia in immune-mediated bone marrow failure BALB/c mouse model assessed as increase in plateletcrit at 2.5 to 10 mg/kg, po administered for 14 days and measured on day 14 by automated micro-analyzer; format: functional, organism-based; details: dose 2.5-10 mg/kg, time 14.0 day
CD8-positive T cell [17] = assay: Inhibition of aerobic glycolysis in CD3/CD28 antibody-stimulated C57BL/6 mouse primary CD8-positive T lymphocytes assessed as reduction in lactate production at 1 to 5 uM incubated for 48 hrs; format: functional, tissue-based; details: dose 1-5 µM
[18] = target: Voltage-gated inwardly rectifying potassium channel KCNH2 (Homo sapiens, UniProt Q12809); assay: Inhibition of human ERG expressed in CHO cells measured after 24 hrs by patch clamp assay; format: cell-based
Chain of Voltage-gated inwardly rectifying potassium channel KCNH2 (Q12809 whole entry): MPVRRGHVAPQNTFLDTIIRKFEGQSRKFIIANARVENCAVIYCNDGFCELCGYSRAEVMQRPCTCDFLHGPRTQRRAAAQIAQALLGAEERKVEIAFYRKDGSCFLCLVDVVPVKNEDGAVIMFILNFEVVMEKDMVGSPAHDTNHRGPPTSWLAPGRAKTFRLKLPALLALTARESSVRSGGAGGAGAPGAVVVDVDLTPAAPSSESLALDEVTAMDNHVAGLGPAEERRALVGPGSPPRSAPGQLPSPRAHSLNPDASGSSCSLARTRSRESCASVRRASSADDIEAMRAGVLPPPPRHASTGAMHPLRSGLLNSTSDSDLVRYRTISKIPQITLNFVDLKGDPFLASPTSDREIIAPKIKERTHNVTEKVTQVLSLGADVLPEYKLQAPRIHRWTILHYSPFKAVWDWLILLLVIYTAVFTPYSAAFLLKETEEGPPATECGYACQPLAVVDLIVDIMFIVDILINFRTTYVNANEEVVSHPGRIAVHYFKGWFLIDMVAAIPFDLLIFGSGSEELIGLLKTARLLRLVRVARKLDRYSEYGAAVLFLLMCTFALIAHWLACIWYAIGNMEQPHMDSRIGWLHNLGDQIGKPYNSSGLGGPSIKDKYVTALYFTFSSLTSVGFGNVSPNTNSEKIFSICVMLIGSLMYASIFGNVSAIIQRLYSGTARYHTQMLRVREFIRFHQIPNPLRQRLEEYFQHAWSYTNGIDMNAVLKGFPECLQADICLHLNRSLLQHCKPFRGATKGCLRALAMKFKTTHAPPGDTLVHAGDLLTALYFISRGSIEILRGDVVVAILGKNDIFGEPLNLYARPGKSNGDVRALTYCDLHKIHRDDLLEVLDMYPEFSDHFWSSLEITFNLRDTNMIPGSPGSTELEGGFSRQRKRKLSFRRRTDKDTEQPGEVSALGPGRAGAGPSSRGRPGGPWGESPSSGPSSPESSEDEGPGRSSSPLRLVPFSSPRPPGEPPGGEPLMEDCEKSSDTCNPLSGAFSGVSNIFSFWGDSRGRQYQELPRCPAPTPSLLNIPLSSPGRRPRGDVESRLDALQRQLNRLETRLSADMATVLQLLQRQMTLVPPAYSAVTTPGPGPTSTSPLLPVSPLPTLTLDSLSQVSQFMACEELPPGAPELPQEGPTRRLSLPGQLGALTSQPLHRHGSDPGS

[19] = Inhibition of IFN-gamma release in mouse CTLL-2 cells measured after 24 hrs by ELISA; format: functional, cell-based; details: CTLL-2, 24 h
Peritoneal macrophage = assay: Inhibition of LPS-induced NO production in C57BL/6J mouse peritoneal macrophages at 10 uM measured after 24 hrs in presence of LPS by Griess reagent based assay relative to control; format: functional
hERG (KCNH2) = hERG (KCNH2) (Homo sapiens, UniProt Q12809); assay: Inhibition of human ERG expressed in CHO cells measured after 24 hrs by patch clamp assay relative to control; format: cell-based; details: CHO cells expressing human ERG
Chain of hERG (KCNH2) (Q12809 whole entry): as above

CD8-positive T cell [20] = assay: Inhibition of CD3/CD28 antibody-stimulated C57BL/6 mouse primary CD8-positive T lymphocytes proliferation at 1 to 5 uM incubated for 48 hrs by CFSE staining based flow cytometry; format: functional, tissue-based; details: dose 1-5 µM
[21] = Inhibition of hematopoietic negative regulators release in CD3/CD28 antibody-stimulated C57BL/6 mouse primary CD8-positive T lymphocytes assessed as suppression of IFN-gamma release measured after 48 hrs by ELISA; format: functional, tissue-based; details: C57BL/6, CD8-positive T cell
Mus musculus [22] = assay: Anti-aplastic anaemia in immune-mediated bone marrow failure BALB/c mouse model assessed as increase in nucleated cell counts in femur at 2.5 to 10 mg/kg, po administered for 14 days and measured on day 14 by Hematoxylin-Eosin staining based analysis; format: functional, organism-based; details: dose 2.5-10 mg/kg, time 14.0 day
[23] = Inhibition of mouse CTLL-2 cells activity at 10 uM incubated for 24 hrs; format: functional
Mus musculus [24] = assay: Anti-aplastic anaemia in immune-mediated bone marrow failure BALB/c mouse model assessed as increase in ratio of nucleated cell to erythroid cell counts in femur at 2.5 to 10 mg/kg, po administered for 14 days and measured on day 14 by Hematoxylin-Eosin staining based analysis; format: functional, organism-based; details: dose 2.5-10 mg/kg, time 14.0 day
[25] = Inhibition of hematopoietic negative regulators release in CD3/CD28 antibody-stimulated C57BL/6 mouse primary CD8-positive T lymphocytes assessed as suppression of TNF-alpha release measured after 48 hrs by ELISA; format: functional, tissue-based; details: C57BL/6, CD8-positive T cell
[26] = Inhibition of CD3/CD28 antibody-stimulated C57BL/6 mouse primary CD8-positive T lymphocytes activation assessed as proportion of CD69-positive cells at 1 uM incubated for 48 hrs by flow cytometry (reference value: 93.42%); format: functional, CD8-positive T cell; design: scale not given: the % may be the effect or the level left
[27] = Acute toxicity in po dosed Kunming mouse; format: organism-based; details: in vivo
Mus musculus [28] = assay: Anti-aplastic anaemia in immune-mediated bone marrow failure BALB/c mouse model assessed as increase in eosinophils count at 2.5 to 10 mg/kg, po administered for 14 days and measured on day 14 by automated micro-analyzer; format: functional, organism-based; details: dose 2.5-10 mg/kg, time 14.0 day
[29] = Cytotoxicity against C57BL/6 mouse primary CD8-positive T lymphocytes assessed as effect on cell viability at 1 to 5 uM incubated for 48 hrs by CCK8 assay; format: tissue-based; details: dose 1-5 µM
Mus musculus [30] = assay: Anti-aplastic anaemia in immune-mediated bone marrow failure BALB/c mouse model assessed as increase in hematocrit content at 2.5 to 10 mg/kg, po administered for 14 days and measured on day 14 by automated micro-analyzer; format: functional, organism-based; details: dose 2.5-10 mg/kg, time 14.0 day
Mus musculus [31] = assay: Anti-aplastic anaemia in immune-mediated bone marrow failure BALB/c mouse model assessed as increase in thymus index at 2.5 to 10 mg/kg, po administered for 14 days; format: functional, organism-based; details: dose 2.5-10 mg/kg, time 14.0 day
Mus musculus [32] = assay: Anti-aplastic anaemia in immune-mediated bone marrow failure BALB/c mouse model assessed as increase in platelet count at 2.5 to 10 mg/kg, po administered for 14 days and measured on day 14 by automated micro-analyzer; format: functional, organism-based; details: dose 2.5-10 mg/kg, time 14.0 day
CD8-positive T cell [33] = assay: Inhibition of CD3/CD28 antibody-stimulated C57BL/6 mouse primary CD8-positive T lymphocytes proliferation assessed as reduction in cell viability incubated for 48 hrs by CCK8 assay; format: functional, tissue-based; details: dose 1-10 µM

Question: For COC1=C[C@@H]2[C@@H]3Cc4c(COC(=O)/C=C/c5ccccc5)cc(OC)c(OC(=O)/C=C/c5ccccc5)c4[C@]2(CCN3C)CC1=O, which IC50 [1] is on record?
Answer: 2.3 µM

Question: And the Activity [2]?
Answer: 80.87%

Question: What about the Activity (Mus musculus [3]) of the same compound?
Answer: Active

Question: What about the Activity (Mus musculus [4]) of the same compound?
Answer: Active

Question: What about the Activity (Mus musculus [5]) of the same compound?
Answer: Active

Question: And the Activity [6]?
Answer: 76.97%

Question: What about the Activity (Mus musculus [7]) of the same compound?
Answer: Active

Question: And the Activity (Mus musculus [8])?
Answer: Active

Question: What about the Activity (Mus musculus [9]) of the same compound?
Answer: Active

Question: And the inhibition at 24 h, 10 µM [10]?
Answer: 6.4%

Question: What about the Activity (Mus musculus [11]) of the same compound?
Answer: Active

Question: What about the Survival [12] of the same compound?
Answer: 14 days

Question: And the Activity (Mus musculus [13])?
Answer: Active

Question: And the Activity (Mus musculus [14])?
Answer: Active

Question: What about the inhibition (CD8-positive T cell [15]) of the same compound?
Answer: Active

Question: What about the Activity (Mus musculus [16]) of the same compound?
Answer: Active

Question: And the inhibition (CD8-positive T cell [17])?
Answer: Active

Question: And the IC50 [18]?
Answer: > 30 µM

Question: And the IC50 [19]?
Answer: 4.5 µM

Question: What about the inhibition at 10 µM (Peritoneal macrophage) of the same compound?
Answer: 97.1%

Question: And the inhibition at 24 h (hERG (KCNH2))?
Answer: 26.2%

Question: What about the inhibition (CD8-positive T cell [20]) of the same compound?
Answer: Active

Question: And the IC50 [21]?
Answer: 3.2 µM

Question: What about the Activity (Mus musculus [22]) of the same compound?
Answer: Active

Question: And the inhibition at 10 µM [23]?
Answer: 98.1%

Question: And the Activity (Mus musculus [24])?
Answer: Active

Question: And the IC50 [25]?
Answer: 4.4 µM

Question: And the Activity [26]?
Answer: 89.37%

Question: And the LD50 [27]?
Answer: > 10000 mg/kg

Question: And the Activity (Mus musculus [28])?
Answer: Active

Question: What about the Activity [29] of the same compound?
Answer: Non-Toxic

Question: What about the Activity (Mus musculus [30]) of the same compound?
Answer: Active

Question: And the Activity (Mus musculus [31])?
Answer: Active

Question: What about the Activity (Mus musculus [32]) of the same compound?
Answer: Active

Question: What about the inhibition (CD8-positive T cell [33]) of the same compound?
Answer: Dose-Dependent Effect
